Test results published in patent US8114619B2, “Methods for diagnosis and optimizing treatment of multiple sclerosis” (The Johns Hopkins University, priority 2006, dated 2012).
Entries after “also recorded” stand apart in the source; their conditions may differ. Non-standard residues stand in square brackets, D forms with d. Residues, ends and D or L forms follow the SMILES beside them. *: point of attachment. Sta = CC(C)C[C@H](N)[C@@H](O)CC(=O)O; Isovaleryl = CC(C)CC(=O)*; 4Abz = Nc1ccc(C(=O)O)cc1; NHOH = ON*

How the values were obtained:
[1] = system: rat mixed hippocampal cultures; assay: in vitro neuroprotection assay against 3-NP, MTT viability; conditions: for protection from oxidative damage elicited by 3-NP: preincubated one hour prior to 18 hour exposure to 3 mM 3-NP
Text: 5, 2007. In Tables 5 and 6 “% Protection vs 3-NP” refers to the increase in cultured neuron viability in the presence of the oxidative stressor 3-nitropropionic acid. For details of the assay, see Example 3 below.
(§1) We sought to evaluate the protective efficacy of a number of modified terpenoid compounds against the against many different neurotoxins, ranging from the chemotoxic 6-OHDA, NMDA, 3-nitropropionic acid (3-NP), and viral proteins such as Tat and gp120. Thus, we established an in vitro neuroprotection assay using rat mixed hippocampal cultures, in which we evaluated the protective efficacy of neuroprotective compounds disclosed herein. The oxidative stressor 3-NP was used to elicit toxicity in the rat hippocampal cultures to mimic the oxidative damage, reactive oxygen species production and ensuing neurodegeneration resulting from HIV infection. Another measure of neurotoxicity which results from HIV infection was evaluated by exposure of the hippocampal cultures to HIV-1 Tat (Li et al (2005), Neurotox Res, 8(1-2):119-134).
(§2) Rat mixed hippocamal neuronal cultures were generated from freshly dissected rat hippocampi (embryonic day 18) in neurobasal media containing 5% fetal bovine serum and 2% B27 supplement. The cells were plated into 96 well plates at a density of 4×10^5 cells/mL and routinely used on days 11-14 following culturing. Cell viability was assessed with MTT [3-(4,5-dimethylthiazol-2-yl)-2,5-diphenyltetrazolium bromide] assay. The MTT assay is based on the ability of a mitochondrial dehydrogenase enzyme from viable cells to cleave the tetrazolium rings of the pale yellow MTT and form dark blue formazan crystals. See Mosmann (1983), J Immunol Methods, 65(1-2):55-63. These crystals are largely impermeable to cell membranes, and thus accumulate within healthy cells. The resultant formazan precipitates are solubilized with DMSO and read on a multiwell scanning spectrophotometer (ELISA reader). The number of surviving cells is directly proportional to the level of the formazan product created.
Mixed hippocampal cultures were incubated with 3-NP (0.5-10 mM) for 18 hours and then assessed for viability using an MTT assay.
(§3) Cultures were preincubated with GPI 1046 or Resveratrol for one hour prior to an 18 hour exposure to 3 mM 3-NP. […] The same neuroprotective compounds were evaluated for efficacy against HIV-1 Tat protein toxicity using the same 1 hour preincubation protocol.

cystatin C = assay: effect of protease inhibitors on cystatin C cleavage in CSF; type: biochemical, human; conditions: control CSF with only full length cystatin C, room temperature 48 hours; FN-439 and pepstatin A 500 ug/ml
Description: We incubated control CSF which contained only the full length cystatin C at room temperature for 48 hours in the presence of various protease inhibitors and monitored it for the presence of the 12.5 kD fragment.

[2] = system: rat mixed hippocampal cultures; assay: neuroprotection against HIV-1 Tat toxicity; type: cell-based; conditions: for protection from HIV-1 Tat toxicity: 1 hour preincubation
Text: as §1, §2, §3

rat neuronal cultures [3] = assay: protection against NMDA excitotoxicity; type: cell-based
Text: as §1
(§4) Rat mixed hippocamal neuronal cultures were generated from freshly dissected rat hippocampi (embryonic day 18) in neurobasal media containing 5% fetal bovine serum and 2% B27 supplement. The cells were plated into 96 well plates at a density of 4×10^5 cells/mL and routinely used on days 11-14 following culturing. Cell viability was assessed with MTT [3-(4,5-dimethylthiazol-2-yl)-2,5-diphenyltetrazolium bromide] assay. […] The resultant formazan precipitates are solubilized with DMSO and read on a multiwell scanning spectrophotometer (ELISA reader). […]

[4] = system: human fetal neuronal cultures; assay: protection of human fetal neurons against 3-NP; type: cell-based
Text: (§5) Finally, we sought to determine if the compounds tested in rat neuronal cultures would also be effective on cultured human fetal neurons.

rat neuronal cultures [5] = assay: protection against 6-OHDA neurotoxicity; type: cell-based
Text: as §1, §4

[6] = system: human fetal neuronal cultures; assay: protection of human fetal neurons against 6-OHDA; type: cell-based
Text: as §5

cathepsin B = target: T1, cathepsin B (Homo sapiens, UniProt P07858); assay: cathepsin B functional assay; type: biochemical; conditions: for inhibition of cathepsin B activity: untreated recombinant protein, or protease alone; for ability to inhibit cathepsin B after treatment of cystatin C with MMP-2: recombinant cystatin C treated with MMP-2; for cathepsin B activity after treatment of cystatin C with cathepsin D: recombinant cystatin C treated with cathepsin D
T1 construct: Cell lysates were prepared using a lysis buffer provided with the assay kit; host or cells: THP-1 cell lysate
Description: The activity of cathepsin B, a substrate of cystatin C, was measured using an activity assay kit (Biovision Research Products, Mountain View, Calif.). This fluorescence-based assay utilizes the cathepsin-B substrate sequence Arg-Arg labeled with amino-4-trifluoromethyl coumarin […]. Cathepsin-B cleaves the synthetic substrate RR-AFC to release free AFC. THP-1 cells (a monocytic cell line) were used as a source of cathepsin B. Cell lysates were prepared using a lysis buffer provided with the assay kit. Cell lysates from 1×10^6 cells were added to 50 μl of CSF in a microtiter plate (q.s. 100 μl). Two μl of substrate Ac-Arg-Arg-AFC was added to each well and incubated for 1 hr at 37° C. Absorbance was measured using a fluorescent plate reader with a 400 nm excitation filter and 505 nm emission filter. Controls included reaction buffer alone and a cathepsin B inhibitor provided in the kit. All samples were analyzed in duplicate.
Recombinant cystatin C was produced and the ability of MMP-2 and cathepsin D to cleave the recombinant protein was confirmed. As expected, cathepsin D cleaved cystatin C at four different sites, and yielded a 12.5 kD fragment following cleavage from the C terminal region (9). In contrast, MMP-2 cleaved cystatin C at three unique sites (GK, FC, and GT which correspond to amino acids 4,5; 96,97 and 108,109). Recombinant cystatin C was treated with either MMP-2 or cathepsin D and its activity monitored by a cathepsin B functional assay using a kit from Biovision Research Products, Mountain View, Calif. The assay was performed as previously described (4). […] Cathepsin D and MMP-2 alone had no effect on cathepsin B activity (FIG. 9). These observations confirmed that C terminal fragmentation of cystatin C leads to a gain in activity while cleavage in other regions including the N terminal region leads to a loss or decrease of activity of cystatin C.

[7] = listed as Recombinant cystatin C

**Q.** Which cytotoxicity ([1]; 3 mM 3-NP, 18 hours, MTT assay) does the source give for `O=C(O)CC[N+](=O)[O-]` [Compound 3-NP, 3-nitropropionic acid] here?
**A.** 25-35%

**Q.** For `CC(C)C[C@@H](NC(=O)[C@@H]1CCCN1C(=O)CNC(=O)c1ccc(N)cc1)C(=O)N[C@H](C)C(=O)NO` [FN-439] (H-[4Abz]GP[dL][dA]-{NHOH}), which “effect on cleavage of cystatin C (12.5 kD fragment)” value (cystatin C) is on record?
**A.** showed inhibition of the breakdown of cystatin C

**Q.** With `CC(=O)O[C@@H]1CC2C(C)(C)C(=O)C=C[C@]2(C)C2CC[C@]3(C)[C@@H](c4ccoc4)OC(=O)[C@H]4O[C@]43[C@@]21C` (stereo partly drawn) [GEDUNIN] as the molecule, how does the “neuroprotection from HIV-1 Tat toxicity at 1-10 μM” value ([2]; 1-10 μM) read?
**A.** nearly complete neuroprotection

**Q.** And the “protection from HIV-1 Tat toxicity” value [2]?
**A.** dose dependently protected

**Q.** With `CCC(C)(C)C(=O)C(=O)N1CCC[C@H]1C(=O)OCCCc1cccnc1` [GPI 1046, reference compound] as the molecule, how does the “protection from HIV-1 Tat toxicity” value [2] read?
**A.** protected hippocampal neurons from Tat toxicity

**Q.** And the “protection from oxidative damage elicited by 3-NP” value [1]?
**A.** significantly protected

**Q.** How did the “protection against NMDA at highest dose” value (rat neuronal cultures [3]; 10 μM, highest dose tested) turn out when `CC1(C)O[C@H]2CC(=O)OC[C@]23[C@H]2CC[C@@]4(C)[C@H](c5ccoc5)OC(=O)[C@H]5O[C@]54[C@]2(C)C(=O)C[C@@H]13` [Limonin] was run?
**A.** complete protection

**Q.** What about the “block of NMDA neurotoxicity” value (rat neuronal cultures [3]; dose-dependent) of the same molecule?
**A.** dose-dependently blocked

**Q.** And the “protection from HIV-1 Tat toxicity” value [2]?
**A.** dose dependently protected

**Q.** And the “protection against 3-NP” value [4]?
**A.** dose-dependently protected

**Q.** What about the “protection against 6-OHDA at highest dose” value (rat neuronal cultures [5]; 10 μM, highest dose tested) of the same molecule?
**A.** complete protection

**Q.** What about the “block of 6-OHDA neurotoxicity” value (rat neuronal cultures [5]; dose-dependent) of the same molecule?
**A.** dose-dependently blocked

**Q.** And the “protection against 6-OHDA” value [6]?
**A.** dose-dependently protected

**Q.** With `C[C@@H]1[C@H](O)[C@@H](C)/C=C/C=C/CC/C=C/C=C/C=C/C=C/C(O[C@H]2O[C@H](C)[C@@H](O)[C@H](N)[C@@H]2O)CC2O[C@](O)(CC(O)C(O)CCC(O)CC(O)CC(O)CC(=O)O[C@H]1C)CC(O)C2C(=O)O` (stereo partly drawn) [NYSTATIN] as the molecule, how does the “% Protection vs 3NP” value ([1]; increase in cultured neuron viability in the presence of 3-nitropropionic acid (Table 6)) read?
**A.** 46.72%

**Q.** Which results are given for `Oc1ccc(C=Cc2cc(O)cc(O)c2)cc1` [RESVERATROL, reference compound]?
**A.** protection from HIV-1 Tat toxicity [2]: protected hippocampal neurons from Tat toxicity; protection from oxidative damage elicited by 3-NP [1]: significantly protected

**Q.** Which “effect on cleavage of cystatin C (12.5 kD fragment)” value (cystatin C) does the source give for `CC(C)CC(=O)N[C@H](C(=O)N[C@H](C(=O)N[C@@H](CC(C)C)[C@@H](O)CC(=O)N[C@@H](C)C(=O)N[C@@H](CC(C)C)[C@@H](O)CC(=O)O)C(C)C)C(C)C` [pepstatin A] (Isovaleryl-VV[Sta]A[Sta]-OH) here?
**A.** showed inhibition of the breakdown of cystatin C; also recorded: significantly prevented cleavage of cystatin C

**Q.** How did the “inhibition of cathepsin B activity” value (cathepsin B) turn out when “Cathepsin D: protease that cleaves cystatin C from the C terminal region” was run?
**A.** no effect

B1: full length cystatin C: recombinant cystatin C, inhibitor of cysteine proteases including cathepsin B (protein)
chain: SSPGKPPRLVGGPMDASVEEEGVRRALDFAVGEYNKASNDMYHSRALQVVRARKQIVAGVNYFLDVELGRTTCTKTQPNLDNCPFHDQPHLKRKAFCSFQIYAVPWQGTMTLSKSTCQDA
**Q.** What does the source list for B1?
**A.** ability to inhibit cathepsin B after treatment of cystatin C with MMP-2 (cathepsin B; [7]): inhibition of CysC activity; ability to inhibit cathepsin B after treatment of cystatin C with MMP-2 (cathepsin B; listed as cystatin C): decrease in its ability to inhibit cathepsin B activity; cathepsin B activity after treatment of cystatin C with cathepsin D (cathepsin B; [7]): further enhanced; cathepsin B activity after treatment of cystatin C with cathepsin D (cathepsin B; listed as cystatin C): further decrease in cathepsin B activity; inhibition of cathepsin B activity (cathepsin B): significant inhibition

B2: MMP-2: matrix metalloprotease that cleaved cystatin C at three sites (protein)
chain: YNFFPRKPKWDKNQITYRIIGYTPDLDPETVDDAFARAFQVWSDVTPLRFSRIHDGEADIMINFGRWEHGDGYPFDGKDGLLAHAFAPGTGVGGDSHFDDDELWTLGEGQVVRVKYGNADGEYCKFPFLFNGKEYNSCTDTGRSDGFLWCSTTYNFEKDGKYGFCPHEALFTMGGNAEGQPCKFPFRFQGTSYDSCTTEGRTDGYRWCGTTEDYDRDKKYGFCPETAMSTVGGNSEGAPCVFPFTFLGNKYESCTSAGRSDGKMWCATTANYDDDRKWGFCPDQGYSLFLVAAHEFGHAMGLEHSQDPGALMAPIYTYTKNFRLSQDDIKGIQELYGASPDIDLGTGPTPTLGPVTPEICKQDIVFDGIAQIRGEIFFFKDRFIWRTVTPRDKPMGPLLVATFWPELPEKIDAVYEAPQEEKAVFFAGNEYWIYSASTLERGYPKPLTSLGLPPDVQRVDAAFNWSKNKKTYIFAGDKFWRYNEVKKKMDPGFPKLIADAWNAIPDNLDAVVDLQGGGHSYFFKGAYYLKLENQSLKSVKFGSIKSDWLGC
**Q.** With B2 as the molecule, how does the “inhibition of cathepsin B activity” value (cathepsin B) read?
**A.** no effect
